The values below come from paper PMC12959773 (Protein & Cell, 2025).

The target in one experiment is T1, SLC7A9-SLC3A1 complex (Homo sapiens, UniProt P82251).
T1 construct: heterodimeric light/heavy chain transporter, dimer of heterodimers; ectopically expressed in HEK293T cells; with Amino acid transporter heavy chain SLC3A1
T1 sequence (P82251 1-487): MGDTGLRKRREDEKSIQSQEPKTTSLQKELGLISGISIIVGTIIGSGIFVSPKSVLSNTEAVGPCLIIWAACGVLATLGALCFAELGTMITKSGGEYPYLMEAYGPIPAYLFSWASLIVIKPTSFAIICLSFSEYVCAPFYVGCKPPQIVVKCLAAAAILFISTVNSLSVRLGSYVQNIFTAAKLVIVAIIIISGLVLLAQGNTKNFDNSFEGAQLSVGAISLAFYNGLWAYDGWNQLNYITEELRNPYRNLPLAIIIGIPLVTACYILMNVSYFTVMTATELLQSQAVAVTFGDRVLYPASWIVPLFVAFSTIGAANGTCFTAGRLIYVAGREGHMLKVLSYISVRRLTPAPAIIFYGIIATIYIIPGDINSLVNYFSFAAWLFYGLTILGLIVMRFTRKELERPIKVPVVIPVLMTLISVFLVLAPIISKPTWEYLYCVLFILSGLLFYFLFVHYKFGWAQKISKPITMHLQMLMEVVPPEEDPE
T1 sequence (Q07837 1-685 partner): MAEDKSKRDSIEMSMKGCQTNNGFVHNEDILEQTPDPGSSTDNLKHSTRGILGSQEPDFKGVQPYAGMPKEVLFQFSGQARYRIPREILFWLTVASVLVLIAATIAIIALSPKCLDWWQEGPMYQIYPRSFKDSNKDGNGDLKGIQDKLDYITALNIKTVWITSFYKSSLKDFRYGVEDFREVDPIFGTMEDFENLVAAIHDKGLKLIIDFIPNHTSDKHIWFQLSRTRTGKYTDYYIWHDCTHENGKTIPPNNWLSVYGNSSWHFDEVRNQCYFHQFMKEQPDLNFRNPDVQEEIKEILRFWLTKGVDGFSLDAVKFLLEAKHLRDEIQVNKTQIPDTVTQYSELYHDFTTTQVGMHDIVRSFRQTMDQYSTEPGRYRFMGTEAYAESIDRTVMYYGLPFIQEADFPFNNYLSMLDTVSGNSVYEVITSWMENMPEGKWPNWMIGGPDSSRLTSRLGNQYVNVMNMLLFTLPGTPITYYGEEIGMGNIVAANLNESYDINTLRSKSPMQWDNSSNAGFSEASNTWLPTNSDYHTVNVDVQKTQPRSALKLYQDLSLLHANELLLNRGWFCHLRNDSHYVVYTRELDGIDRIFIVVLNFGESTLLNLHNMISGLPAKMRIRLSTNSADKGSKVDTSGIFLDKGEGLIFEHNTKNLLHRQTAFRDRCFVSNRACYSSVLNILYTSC
Put plainly: microscale thermophoresis. The settings on record: read-out: binding affinity. (In general: In MST a laser heats a spot of the sample, and binding alters the fluorescence response.)

For another experiment, the target named is T2, SLC7A13-SLC3A1 complex (Homo sapiens, UniProt Q8TCU3, F216A).
T2 construct: heterodimeric light/heavy chain transporter, dimer of heterodimers; ectopically expressed in HEK293T / HEK293 cells (Expi293 for cryo-EM); with Amino acid transporter heavy chain SLC3A1
T2 sequence (Q8TCU3 1-470 F216A): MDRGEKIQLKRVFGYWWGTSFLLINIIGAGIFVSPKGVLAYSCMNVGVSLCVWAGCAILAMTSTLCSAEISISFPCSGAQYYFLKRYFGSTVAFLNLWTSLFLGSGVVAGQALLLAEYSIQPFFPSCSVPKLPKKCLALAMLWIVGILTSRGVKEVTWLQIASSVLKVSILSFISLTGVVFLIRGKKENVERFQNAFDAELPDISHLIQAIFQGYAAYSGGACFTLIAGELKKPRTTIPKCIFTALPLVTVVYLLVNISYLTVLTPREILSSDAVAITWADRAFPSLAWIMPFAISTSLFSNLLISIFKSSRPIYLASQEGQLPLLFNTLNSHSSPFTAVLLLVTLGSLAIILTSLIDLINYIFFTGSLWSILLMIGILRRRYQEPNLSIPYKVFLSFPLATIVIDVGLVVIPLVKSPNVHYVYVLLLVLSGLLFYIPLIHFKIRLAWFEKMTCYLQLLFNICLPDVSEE
T2 sequence (Q07837 1-685 partner): T1 sequence (Q07837 1-685 partner)
Put plainly: [2H]-cystine uptake, isotope tracking. Type of experiment: cell-based. The note with it: HEK293 cells transfected with SLC7A13 and SLC3A1; labelled compound.

For a further experiment, the target named is T3, SLC7A11-SLC3A2 complex (Homo sapiens, UniProt Q9UPY5).
T3 construct: system xc-, heterodimeric light/heavy chain transporter; ectopically expressed in HEK293T cells; with Amino acid transporter heavy chain SLC3A2
T3 sequence (Q9UPY5 1-501): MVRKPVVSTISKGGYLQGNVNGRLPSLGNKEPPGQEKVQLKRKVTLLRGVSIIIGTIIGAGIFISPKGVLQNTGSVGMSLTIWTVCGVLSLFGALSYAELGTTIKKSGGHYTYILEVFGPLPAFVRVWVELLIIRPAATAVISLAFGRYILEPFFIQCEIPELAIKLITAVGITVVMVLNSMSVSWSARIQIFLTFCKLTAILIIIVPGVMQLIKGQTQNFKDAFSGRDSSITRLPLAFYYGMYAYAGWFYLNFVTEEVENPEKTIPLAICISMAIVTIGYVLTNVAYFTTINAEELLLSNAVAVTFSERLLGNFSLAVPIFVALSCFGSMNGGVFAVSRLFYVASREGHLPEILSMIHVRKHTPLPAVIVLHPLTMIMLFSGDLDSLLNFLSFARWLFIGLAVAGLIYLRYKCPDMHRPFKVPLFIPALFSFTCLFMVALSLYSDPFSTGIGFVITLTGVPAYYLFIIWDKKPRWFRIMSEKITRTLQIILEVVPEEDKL
T3 sequence (P08195 2-529 partner): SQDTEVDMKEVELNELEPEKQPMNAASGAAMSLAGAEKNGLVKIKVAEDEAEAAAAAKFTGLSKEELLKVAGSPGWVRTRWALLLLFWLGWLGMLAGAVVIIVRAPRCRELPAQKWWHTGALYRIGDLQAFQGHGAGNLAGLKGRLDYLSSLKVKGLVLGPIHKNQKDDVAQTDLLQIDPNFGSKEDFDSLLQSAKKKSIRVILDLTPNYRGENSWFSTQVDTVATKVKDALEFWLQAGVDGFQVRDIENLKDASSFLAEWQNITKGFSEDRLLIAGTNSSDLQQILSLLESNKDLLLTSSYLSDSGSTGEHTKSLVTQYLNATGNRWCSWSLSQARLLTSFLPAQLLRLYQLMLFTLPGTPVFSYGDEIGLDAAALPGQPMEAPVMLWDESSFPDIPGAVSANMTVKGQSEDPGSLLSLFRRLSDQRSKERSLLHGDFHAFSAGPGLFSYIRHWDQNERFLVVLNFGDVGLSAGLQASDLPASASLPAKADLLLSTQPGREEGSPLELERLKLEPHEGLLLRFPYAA
Put plainly: microscale thermophoresis. The settings on record: read-out: binding affinity.

`N[C@@H](CSSC[C@H](N)C(=O)O)C(=O)O` [cystine]: the results for the Kd on SLC7A9-SLC3A1 complex and on SLC7A11-SLC3A2 complex were 107 ± 33.5 µM and 15.6 ± 7.04 µM, respectively. On SLC7A13-SLC3A1 complex, the cystine uptake result is on record as “mutation in any of the seven SLC7A13-specific residues to alanine significantly reduced SLC7A13’s transporter activities”.
